This note sets out measurements from PubChem BioAssay AID330 (DTP/NCI, 2004).

This test deals with P388 leukemia ip, CD2F1 mice, survival T/C. Briefly: NCI In Vivo Anticancer Drug Screen. Data for tumor model P388 Leukemia (intraperitoneal) in CD2F1 (CDF1) mice. Particulars: endpoint: median survival time, higher = longer survival. An outline of the steps:
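Mice carrying the transplanted tumor received test compound or vehicle. Survival was recorded in each group, and the value is the treated-group measurement divided by that of the vehicle-treated control group.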

[1] abbreviates: dose: 50.0 mg/kg/injection, schedule: Q01DX005 (ip), vehicle: saline.
[2] abbreviates: dose: 50.0 mg/kg/injection, schedule: Q01DX005 (ip), vehicle: saline with Tween-80.
Where [3] appears, read: dose: 100.0 mg/kg/injection, schedule: Q01DX005 (ip), vehicle: saline with Tween-80.
Where [4] appears, read: dose: 200.0 mg/kg/injection, schedule: Q01DX005 (ip), vehicle: saline with Tween-80.
The mark [5] stands for this setting: dose: 60.0 mg/kg/injection, schedule: Q01DX005 (ip), vehicle: saline with Tween-80.
Where [6] appears, read: dose: 120.0 mg/kg/injection, schedule: Q01DX005 (ip), vehicle: saline with Tween-80.
[7] abbreviates: dose: 25.0 mg/kg/injection, schedule: Q01DX005 (ip), vehicle: saline with Tween-80.
Where [8] appears, read: dose: 100.0 mg/kg/injection, schedule: Q01DX009 (ip), vehicle: distilled water + Tween-80.
The mark [9] stands for this setting: dose: 200.0 mg/kg/injection, schedule: Q01DX009 (ip), vehicle: distilled water + Tween-80.

Molecules are shown by their SMILES. Where “and” joins values, the source holds several entries; their conditions need not be identical. Equal values may be shown once. Inconclusive results and toxic doses are left out.

In the case of `CCOC(C)n1c(C)nc2ccccc21` (stereo unspecified), the T/C by setting is: (dose: 100.0 mg/kg/injection, schedule: Q04DX002 (ip), vehicle: saline) 99 % of control; (dose: 200.0 mg/kg/injection, schedule: Q04DX002 (ip), vehicle: saline) 101 % of control; (dose: 400.0 mg/kg/injection, schedule: Q04DX002 (ip), vehicle: saline) 97 % of control.

With `CN(CCCCCC(=O)O)c1ccncc1`, the T/C by setting is: under setting [1], 103 % of control; (dose: 100.0 mg/kg/injection, schedule: Q01DX005 (ip), vehicle: saline) 100 % of control; (dose: 200.0 mg/kg/injection, schedule: Q01DX005 (ip), vehicle: saline) 108 % of control.

Regarding `Nc1nc(N)c2c(n1)CCC(C(=O)Nc1ccc(Cl)cc1)C2` (stereo unspecified), the T/C was 94 % of control under setting [2], 96 % of control under setting [3] and 96 % of control under setting [4].

`CCC(C(=O)c1ccccc1)C1(C(=O)OC)NC(=S)NC(=O)C1C#N` (stereo unspecified): the T/C reads like this: (dose: 60.0 mg/kg/injection, schedule: Q01DX005 (ip), vehicle: saline) 95 % of control; (dose: 120.0 mg/kg/injection, schedule: Q01DX005 (ip), vehicle: saline) 95 % of control; (dose: 240.0 mg/kg/injection, schedule: Q01DX005 (ip), vehicle: saline) 100 % of control.

As for `COc1ccc2nc(C)cc(N=[N+]=[N-])c2c1`, the T/C runs as follows: under setting [5], 100 % of control; under setting [6], 100 % of control; (dose: 240.0 mg/kg/injection, schedule: Q01DX005 (ip), vehicle: saline with Tween-80) 91 % of control.

Consider `OCC1OC(n2c(=S)[nH]c3ccccc32)C(O)C1O` (stereo unspecified), for which the T/C was 98 % of control under setting [5] and 98 % of control under setting [6].

For `O=C1CS(=O)(=O)C(c2ccc(Cl)cc2)N1N1C(=O)CS(=O)(=O)C1c1ccc(Cl)cc1` (stereo unspecified), the T/C is 98 % of control and 109 % of control under setting [7]; 95 % of control and 96 % of control under setting [2]; 87 % of control and 95 % of control under setting [3].

Regarding `Oc1cccc(NCNC2Nc3ccccc3N2)c1`, the T/C is 94 % of control (dose: 15.0 mg/kg/injection, schedule: Q01DX005 (ip), vehicle: saline with Tween-80) and 95 % of control (dose: 30.0 mg/kg/injection, schedule: Q01DX005 (ip), vehicle: saline with Tween-80).

On to `COC(=O)C(CSC(c1ccccc1)(c1ccccc1)c1ccccc1)NC(=O)CC(NC(=O)OCc1ccccc1)C(N)=O` (stereo unspecified), for which the T/C is, setting by setting: (dose: 12.5 mg/kg/injection, schedule: Q01DX009 (ip), vehicle: distilled water + Tween-80) 106 % of control; (dose: 25.0 mg/kg/injection, schedule: Q01DX009 (ip), vehicle: distilled water + Tween-80) 93 % of control; (dose: 50.0 mg/kg/injection, schedule: Q01DX009 (ip), vehicle: distilled water + Tween-80) 103 % of control; under setting [8], 94 % of control; under setting [9], 102 % of control.

Consider `O=C([O-])c1cc(Br)cc(Br)c1[OH2+].O=C([O-])c1cc(Br)cc(Br)c1[OH2+].[Mn+2]`, for which the T/C by setting is: under setting [5], 109 % of control; under setting [6], 115 % of control.

Regarding `NC(=O)c1nn(C2OC(CO)C(O)C2O)c2ncnc(N)c12` (stereo unspecified), the T/C was 152 % of control (dose: 3.0 mg/kg/injection, schedule: Q01DX009 (ip), vehicle: Klucel (hydroxypropylcellulose) (HPC)) and 190 % of control (dose: 6.0 mg/kg/injection, schedule: Q01DX009 (ip), vehicle: Klucel (hydroxypropylcellulose) (HPC)).

As to `CC1(C)SC(C)(C)N2C(=O)[C@H]3N(C(=O)[C@@H]21)C(C)(C)SC3(C)C`, the T/C is 100 % of control (dose: 12.5 mg/kg/injection, schedule: Q01DX005 (ip), vehicle: saline with Tween-80); 94 % of control under setting [7]; 99 % of control and 91 % of control under setting [2]; 94 % of control under setting [3]; 97 % of control under setting [4].

`COc1ccc(N=C2C(=Nc3ccc(OC)cc3)N(c3ccc(OC)cc3)C(=S)N2C)cc1`: the T/C was 106 % of control (dose: 50.0 mg/kg/injection, schedule: Q01DX005 (ip), vehicle: Klucel + Tween-80); 93 % of control (dose: 100.0 mg/kg/injection, schedule: Q01DX005 (ip), vehicle: Klucel + Tween-80); 106 % of control (dose: 200.0 mg/kg/injection, schedule: Q01DX005 (ip), vehicle: Klucel + Tween-80).

Regarding `O=c1[nH]c2ccccc2nc1/C=C(\O)c1ccc([N+](=O)[O-])cc1`, the T/C reads like this: (dose: 7.5 mg/kg/injection, schedule: Q01DX005 (ip), vehicle: Klucel + Tween-80) 100 % of control; (dose: 15.0 mg/kg/injection, schedule: Q01DX005 (ip), vehicle: Klucel + Tween-80) 89 % of control; (dose: 30.0 mg/kg/injection, schedule: Q01DX005 (ip), vehicle: Klucel + Tween-80) 86 % of control.

For `CC1CP(c2ccccc2)(c2ccccc2)(c2ccccc2)OC1(C(=O)c1ccccc1)c1ccccc1` (stereo unspecified), the T/C is, setting by setting: (dose: 6.25 mg/kg/injection, schedule: Q01DX009 (ip), vehicle: saline with Tween-80) 100 % of control; (dose: 25.0 mg/kg/injection, schedule: Q01DX009 (ip), vehicle: saline with Tween-80) 88 % of control.

Turning to `NC1=NN(S(=O)(=O)c2ccc(Br)cc2)CC1`, the T/C by setting is: (dose: 50.0 mg/kg/injection, schedule: Q01DX005 (ip), vehicle: Klucel (hydroxypropylcellulose) (HPC)) 89 % of control; (dose: 100.0 mg/kg/injection, schedule: Q01DX005 (ip), vehicle: Klucel (hydroxypropylcellulose) (HPC)) 94 % of control; (dose: 200.0 mg/kg/injection, schedule: Q01DX005 (ip), vehicle: Klucel (hydroxypropylcellulose) (HPC)) 89 % of control.

For `O=C(c1ccccc1)N1CC1`, the T/C (dose: 50.0 mg/kg/injection, schedule: Q01DX009 (ip), vehicle: saline + alcohol) was 94 % of control; the T/C (dose: 100.0 mg/kg/injection, schedule: Q01DX009 (ip), vehicle: saline + alcohol) is 97 % of control; the T/C (dose: 200.0 mg/kg/injection, schedule: Q01DX009 (ip), vehicle: saline + alcohol) is 100 % of control; the T/C (dose: 400.0 mg/kg/injection, schedule: Q01DX009 (ip), vehicle: saline + alcohol) was 116 % of control.

As for `CC1(C)OCC(CO)(Nc2nc(N3CC3)nc(N3CC3)n2)CO1`, the T/C is, setting by setting: (dose: 0.62 mg/kg/injection, schedule: Q01DX009 (ip), vehicle: saline) 120 % of control; (dose: 1.25 mg/kg/injection, schedule: Q01DX009 (ip), vehicle: saline) 158 % of control and 164 % of control; (dose: 2.5 mg/kg/injection, schedule: Q01DX009 (ip), vehicle: saline) 199 % of control and 229 % of control; (dose: 3.75 mg/kg/injection, schedule: Q01DX009 (ip), vehicle: saline) 187 % of control; (dose: 5.0 mg/kg/injection, schedule: Q01DX009 (ip), vehicle: saline) 89 % of control and 98 % of control.

On to `O=C(NO)c1cc(O)c(O)c(O)c1`, for which the T/C by setting is: (dose: 50.0 mg/kg/injection, schedule: Q01DX005 (ip), vehicle: distilled water + Tween-80) 121 % of control; under setting [8], 168 % of control; (dose: 200.0 mg/kg/injection, schedule: Q01DX005 (ip), vehicle: distilled water + Tween-80) 155 % of control; under setting [9], 197 % of control.

Consider `O=C1NC(=O)C2=C1NCCN2`, for which the T/C reads like this: (dose: 100.0 mg/kg/injection, schedule: Q04DX003 (ip), vehicle: saline) 107 % of control; (dose: 200.0 mg/kg/injection, schedule: Q04DX003 (ip), vehicle: saline) 104 % of control; (dose: 400.0 mg/kg/injection, schedule: Q04DX003 (ip), vehicle: saline) 99 % of control.

On to `COC(=O)c1cccc2c(Br)cc3ccccc3c12`, for which the T/C by setting is: (dose: 150.0 mg/kg/injection, schedule: Q04DX003 (ip), vehicle: Klucel (hydroxypropylcellulose) (HPC)) 95 % of control; (dose: 300.0 mg/kg/injection, schedule: Q04DX003 (ip), vehicle: Klucel (hydroxypropylcellulose) (HPC)) 91 % of control.

With `CCN(CC)CC(C)(O)CNc1cc(OC)cc2cccnc12` (stereo unspecified), the T/C (dose: 12.5 mg/kg/injection, schedule: Q01DX005 (ip), vehicle: saline) is 97 % of control; the T/C (dose: 25.0 mg/kg/injection, schedule: Q01DX005 (ip), vehicle: saline) was 101 % of control; the T/C under setting [1] is 93 % of control and 94 % of control.

`O=C(O)CS(=O)(=O)Cc1ccc(Cl)cc1Cl`: the T/C was 103 % of control (dose: 60.0 mg/kg/injection, schedule: Q01DX005 (ip), vehicle: suspension in saline); 112 % of control (dose: 120.0 mg/kg/injection, schedule: Q01DX005 (ip), vehicle: suspension in saline); 96 % of control (dose: 240.0 mg/kg/injection, schedule: Q01DX005 (ip), vehicle: suspension in saline).
